Results reported in article PMC9607427, “Novel 7-Chloro-(4-thioalkylquinoline) Derivatives: Synthesis and Antiproliferative Activity through Inducing Apoptosis and DNA/RNA Damage” (Pharmaceuticals, 2022).

Columns and labels:
CCRF-CEM lymphoblasts [1] = test: Cell cycle and apoptosis analysis (propidium iodide flow cytometry); type: cell-based, human; settings: 24 h
Procedure: On the other hand, we wanted to find out whether compounds 48–50, 53, 54, 57, 59–63, 65–70, and 72 can stop the cell cycle of cancer cells, as it has been previously reported for chloroquine. For a more detailed description of the biological activity of the studied derivatives, we performed a cell cycle analysis of the most sensitive CCRF-CEM cells after 24 h of incubation with the novel 7-chloro-(4-thioalkylquinoline) derivatives (Table 4).
(§1) The effect of compounds on cell cycle distribution was determined to gain insights into the mechanism of its antiproliferative activity. […] For example, as compared with control, the percentage of cells in G2/M phases was increased by treatment with 5 × IC50 μM of compounds for 24 h (Table 4). […] As shown in (Table 4), there was a marked increase in the sub-G1 from 2.91 in untreated cells. 5-Bromo-2-deoxyuridine (BrDU) is incorporated into newly synthesized DNA, and 5-bromouridine (BrU) pulse labeling is therefore commonly used as a proliferation marker. Low BrDU and BrU incorporation into the DNA or RNA, respectively, of treated cells with all compounds at 5 × IC50 reflected inhibition of DNA and RNA synthesis, indicating irreversible apoptotic changes. The percentage of […] cells incorporating 5-bromouridine is proportional to the transcriptional activity of CCRF-CEM cells.
CCRF-CEM cells were seeded at a density of 1 × 10^6 cells per one mL in 6-well plates (TTP) and were cultivated with compounds at concentrations corresponding to 1 × or 5 × IC50 value. Together with the compounds-treated cells, a vehicle-treated sample was harvested at the same time point. After 24 h, the cells were washed with cold phosphate-buffered saline (PBS) and fixed in 70% ethanol added dropwise and stored overnight at −20 °C. Afterward, cells were washed in hypotonic citrate buffer, treated with RNase (50 µg mL^−1), and stained with propidium iodide. Flow cytometry using a 488 nm single beam laser (Becton Dickinson) was used for measurement. The cell cycle was analyzed by the software ModFitLT (Verity), and apoptosis was measured in a logarithmic model expressing the percentage of the particles with propidium content lower than cells in the G0/G1 phase (<G1) of the cell cycle. Half of the sample was used for pH3Ser10 antibody (Sigma) labeling and subsequent flow cytometry analysis of the cells in mitosis.

CCRF-CEM lymphoblasts [2] = test: BrU incorporation analysis (RNA synthesis); type: cell-based, human; settings: 24 h
Procedure: as §1, with “CCRF-CEM cells. Cells were cultured and treated as described above. Before harvesting, pulse-labeling with 1 mM BrU for 30 min followed. The cells were then fixed in 1% buffered paraformaldehyde with 0.05% NP-40 at rt for 15 min, and then stored at 4 °C overnight. Before measurement, they were washed with 1% glycine in PBS, washed with PBS again and stained with primary anti-BrDU antibody cross-reacting to BrU (Exbio) for 30 min at rt in the dark. From this point, the experiment was performed exactly as in the previous method.” for “CCRF-CEM cells.”

[3] = 5 × IC50 (second value of cell)

SMILES | >G2/M, % of Total Cellular Populations (CCRF-CEM lymphoblasts [1]; 1 × IC50 (first value of cell)) [%] | G0/G1, % of Total Cellular Populations (CCRF-CEM lymphoblasts [1]; 1 × IC50 (first value of cell)) [%] | G2/M, % of Total Cellular Populations (CCRF-CEM lymphoblasts [1]; 1 × IC50 (first value of cell)) [%] | S, % of Total Cellular Populations (CCRF-CEM lymphoblasts [1]; 1 × IC50 (first value of cell)) [%] | Sub-G1 Apoptosis, % of Total Cellular Populations (CCRF-CEM lymphoblasts [1]; 1 × IC50 (first value of cell)) [%] | >G2/M, % of Total Cellular Populations (CCRF-CEM lymphoblasts [1]; [3]) [%] | G0/G1, % of Total Cellular Populations (CCRF-CEM lymphoblasts [1]; [3]) [%] | G2/M, % of Total Cellular Populations (CCRF-CEM lymphoblasts [1]; [3]) [%] | S, % of Total Cellular Populations (CCRF-CEM lymphoblasts [1]; [3]) [%] | Sub-G1 Apoptosis, % of Total Cellular Populations (CCRF-CEM lymphoblasts [1]; [3]) [%] | RNA Synthesis (% positive of cells) (CCRF-CEM lymphoblasts [2]; 1 × IC50 (first value of cell)) [%] | RNA Synthesis (% positive of cells) (CCRF-CEM lymphoblasts [2]; [3]) [%]
COc1ccc(OC)c(C(=O)OCCS(=O)(=O)c2cc[n+]([O-])c3cc(Cl)ccc23)c1 [Compound 65, 2-[(N-Oxide 7-chloroquinolin-4-yl)sulfonyl]ethyl-2,5-dimethoxybenzoate] | 7.55 | 40.82 | 20.04 | 39.14 | 17.77 | 7.13 | 47.21 | 19.99 | 32.8 | 8.67 | 36.04 | 24.95
O=C(OCCS(=O)(=O)c1cc[n+]([O-])c2cc(Cl)ccc12)c1ccc(C(F)(F)F)cc1 [Compound 72, 2-[(N-Oxide 7-chloroquinolin-4-yl)sulfonyl]ethyl-4-(trifluoromethyl)benzoate] | 8.35 | 47.22 | 18.46 | 34.32 | 4.05 | 13.12 | 31.36 | 21.98 | 46.65 | 10.12 | 21.64 | 2.19
COc1ccc(C(=O)OCCS(=O)(=O)c2cc[n+]([O-])c3cc(Cl)ccc23)cc1[N+](=O)[O-] [Compound 69, 2-[(N-Oxide 7-chloroquinolin-4-yl)sulfonyl]ethyl-4-methoxy-3-nitrobenzoate] | 8.58 | 43.48 | 20.83 | 35.7 | 3.3 | 12.52 | 38.16 | 19.27 | 42.58 | 13.89 | 31.54 | 2.64
COc1ccc(C(=O)OCCS(=O)(=O)c2cc[n+]([O-])c3cc(Cl)ccc23)cc1 [Compound 63, 2-[(N-Oxide 7-chloroquinolin-4-yl)sulfonyl]ethyl-4-methoxybenzoate] | 8.56 | 42.76 | 16.81 | 40.42 | 3.41 | 11.38 | 34.13 | 17.88 | 47.99 | 12.97 | 35.01 | 2.79
COc1cc(OC)c(C(=O)OCCS(=O)(=O)c2cc[n+]([O-])c3cc(Cl)ccc23)cc1OC [Compound 66, 2-[(N-Oxide 7-chloroquinolin-4-yl)sulfonyl]ethyl-2,4,5-trimethoxybenzoate] | 10.42 | 39.53 | 16.6 |  | 2.95 | 10.45 | 48.53 | 26.56 | 24.9 | 11.72 | 29.44 | 3.05
Cc1ccc([N+](=O)[O-])c(C(=O)OCCS(=O)(=O)c2cc[n+]([O-])c3cc(Cl)ccc23)c1 [Compound 70, 2-[(N-Oxide 7-chloroquinolin-4-yl)sulfonyl]ethyl-5-methyl-2-nitrobenzoate] | 10.54 | 39.54 | 21.99 | 38.46 | 3.21 | 10.33 | 33.44 | 23.25 | 43.31 | 13.75 | 35.28 | 2.88
COc1ccccc1C(=O)OCCS(=O)(=O)c1cc[n+]([O-])c2cc(Cl)ccc12 [Compound 68, 2-[(N-Oxide 7-chloroquinolin-4-yl)sulfonyl]ethyl-2-methoxybenzoate] | 9.87 | 35.73 | 18.54 | 45.73 | 2.71 | 9.65 | 48.5 | 19.64 | 31.86 | 7.16 | 37.4 | 3.8
